Results from patent US7820651B2, “Preparation of antimicrobial formulations using 7-oxa-2-thia-1,5-diazabicyclo[3.3.1]nonane-2,2-dione” (priority 2006, dated 2010).

Key:
[1] = test system: P. aeruginosa (ATCC 15442); assay: Bactericidal activity according to DIN EN 1040 (membrane filtration), microbial count reduction; type: cell-based; settings: 20°±1° C., pH 6.3
Protocol: (§1) With regard to a possible use as lock solution, a solution was prepared, for testing for antimicrobial activity, by dissolving 0.85 g of cyclotaurolidine and 4.8 g of monosodium citrate in water (100 ml) with stirring, a clear colorless solution being obtained. After the pH of the solution had been adjusted to 6.3, the solution was filtered and filled into ampoules. The bactericidal and fungicidal activity of the solution was tested by a recognized test laboratory according to DIN EN 1040 and DIN EN 1275 (membrane filtration) against the test organisms S. aureus (ATCC 6538), P. aeruginosa (ATCC 15442), S. epidermis (ATCC 12288), C. albicans (ATCC 10231) and A. niger (ATCC 16404). The microbial count reductions observed for an action time of the test solution of 60 min and of 24 h at a test temperature of 20°±1° C. were determined. The results are given in log steps of the microbial count reduction, minimum reductions of ≧5.0 log steps being required with respect to the test microorganisms S. aureus, P. aeruginosa and S. epidermis and log steps of ≧4.0 for C. albicans and A. niger, based on DIN EN 1040 and DIN EN 1275.

[2] = test system: S. epidermis (ATCC 12288); assay: as above; type: cell-based; settings: 20°±1° C., pH 6.3
Protocol: as §1

S. aureus (ATCC 6538) = assay: as above; type: cell-based; settings: 20°±1° C., pH 6.3
Protocol: as §1

[3] = Exploratory experiments for dissolving in water (solubility); type: physicochemical; settings: in 100 ml of water at room temperature
[4] = type: physicochemical
Text: In contrast to taurolidin, cyclotaurolidine can therefore also be processed to give formulations in organic vehicles, for example in many customary organic vehicle materials for pharmaceutical and cosmetic purposes. This permits, for example, advantageous use in ointments and gels and on plastic surfaces (in the surface layers of stents), for example in agents for disinfecting the skin surface or as a fungicide, for example for the feet.

A. niger (ATCC 16404) = assay: Fungicidal activity according to DIN EN 1275 (membrane filtration), microbial count reduction; type: cell-based; settings: 20°±1° C., pH 6.3
Protocol: as §1

C. albicans (ATCC 10231) = assay: as above; type: cell-based; settings: 20°±1° C., pH 6.3
Protocol: as §1

[5] = action time 60 min, 0.85 g cyclotaurolidine and 4.8 g monosodium citrate in 100 ml water
[6] = action time 24 h, 0.85 g cyclotaurolidine and 4.8 g monosodium citrate in 100 ml water
[7] = action time 60 min, comparative aqueous solution, 2% by weight of taurolidin with citrate
[8] = action time 24 h, comparative aqueous solution, 2% by weight of taurolidin with citrate

Compound: O=S1(=O)CCN2COCN1C2 [cyclotaurolidine, 7-oxa-2-thia-1,5-diazabicyclo[3.3.1]nonane-2,2-dione]
- microbial count reduction [1, 5]: > 5.27 log steps
- microbial count reduction [1, 6]: > 5.27 log steps
- microbial count reduction [2, 5]: 1.22 log steps
- microbial count reduction [2, 6]: > 5.29 log steps
- microbial count reduction (S. aureus (ATCC 6538); [5]): 2.04 log steps
- microbial count reduction (S. aureus (ATCC 6538); [6]): > 5.25 log steps
- solubility [3]: ≤ 13 mg/mL
- solubility in organic solvents [4]: soluble in various organic solvents
- stability in the air [4]: stable in the air at customary temperatures
- microbial count reduction (A. niger (ATCC 16404); [5]): > 4.08 log steps
- microbial count reduction (A. niger (ATCC 16404); [6]): > 4.08 log steps
- microbial count reduction (C. albicans (ATCC 10231); [5]): > 4.26 log steps
- microbial count reduction (C. albicans (ATCC 10231); [6]): > 4.26 log steps

Compound: O=S1(=O)CCN(CN2CCS(=O)(=O)NC2)CN1 [taurolidin, reference compound]
- microbial count reduction [1, 7]: > 5.27 log steps
- microbial count reduction [1, 8]: ≥ 5.27 log steps
- microbial count reduction [2, 7]: > 0.99 log steps
- microbial count reduction [2, 8]: ≥ 5.29 log steps
- microbial count reduction (S. aureus (ATCC 6538); [7]): 1.33 log steps
- microbial count reduction (S. aureus (ATCC 6538); [8]): ≥ 5.25 log steps
- microbial count reduction (A. niger (ATCC 16404); [7]): 1.18 log steps
- microbial count reduction (A. niger (ATCC 16404); [8]): ≥ 4.08 log steps
- microbial count reduction (C. albicans (ATCC 10231); [7]): 0 log steps
- microbial count reduction (C. albicans (ATCC 10231); [8]): 3.70 log steps
